# From article PMC11628397 (Nature Synthesis, 2024)
# How the values were obtained:
# [1] = kinetic solubility in phosphate-buffered saline, pH 7.4; type: physicochemical; conditions: pH 7.4, aqueous buffer, kinetic from dmso stock
# [2] = system: human cancer cell line MCF-7; assay: resazurin reduction assay, growth inhibition of MCF-7; type: cell-based; conditions: MCF7, read-out: IC50, inhibition of the growth of MCF-7
# [3] = system: human cancer cell line MCF-7; conditions: MCF-7 human cancer cell line; cited from earlier work
# MCF-7 cells = conditions: cited from earlier work
# [4] = metabolic stability in human liver microsomes
solubility kinetic [1] [µM],IC50 [2] [µM],"CLint, metabolic stability (as printed in text) [4] [mg/min/µL]",SMILES,effect on cell growth (in words) [3],"cell differentiation, intracellular lipid droplets (in words) (MCF-7 cells)"
≤ 1,31.3 ± 7.8,–,CC(C)(C)c1ccc(CN2CCN(C(c3ccccc3)c3ccc(Cl)cc3)CC2)cc1 (stereo not drawn) [Buclizine],cytostatic effect,induced cell differentiation
385,–,83,CCOC(=O)c1ccc(N)cc1 [Benzocaine],–,–
